As a reminder, the EC50 is the concentration needed to bring the measured effect to its halfway point. A higher EC50 goes with a less potent agent.

Each structure is given as a SMILES string.

In the first assay the target is α4β7 integrin (Homo sapiens (Human), UniProt P13612+P26010). Briefly: α4β7 Integrin Cell Capture Assay. It is filed as cell-based. As to conditions: RPMI8866 cells captured on MadCAM-1 extracellular domain-coated plate.
Sequence of α4β7 integrin (P13612 34-1032): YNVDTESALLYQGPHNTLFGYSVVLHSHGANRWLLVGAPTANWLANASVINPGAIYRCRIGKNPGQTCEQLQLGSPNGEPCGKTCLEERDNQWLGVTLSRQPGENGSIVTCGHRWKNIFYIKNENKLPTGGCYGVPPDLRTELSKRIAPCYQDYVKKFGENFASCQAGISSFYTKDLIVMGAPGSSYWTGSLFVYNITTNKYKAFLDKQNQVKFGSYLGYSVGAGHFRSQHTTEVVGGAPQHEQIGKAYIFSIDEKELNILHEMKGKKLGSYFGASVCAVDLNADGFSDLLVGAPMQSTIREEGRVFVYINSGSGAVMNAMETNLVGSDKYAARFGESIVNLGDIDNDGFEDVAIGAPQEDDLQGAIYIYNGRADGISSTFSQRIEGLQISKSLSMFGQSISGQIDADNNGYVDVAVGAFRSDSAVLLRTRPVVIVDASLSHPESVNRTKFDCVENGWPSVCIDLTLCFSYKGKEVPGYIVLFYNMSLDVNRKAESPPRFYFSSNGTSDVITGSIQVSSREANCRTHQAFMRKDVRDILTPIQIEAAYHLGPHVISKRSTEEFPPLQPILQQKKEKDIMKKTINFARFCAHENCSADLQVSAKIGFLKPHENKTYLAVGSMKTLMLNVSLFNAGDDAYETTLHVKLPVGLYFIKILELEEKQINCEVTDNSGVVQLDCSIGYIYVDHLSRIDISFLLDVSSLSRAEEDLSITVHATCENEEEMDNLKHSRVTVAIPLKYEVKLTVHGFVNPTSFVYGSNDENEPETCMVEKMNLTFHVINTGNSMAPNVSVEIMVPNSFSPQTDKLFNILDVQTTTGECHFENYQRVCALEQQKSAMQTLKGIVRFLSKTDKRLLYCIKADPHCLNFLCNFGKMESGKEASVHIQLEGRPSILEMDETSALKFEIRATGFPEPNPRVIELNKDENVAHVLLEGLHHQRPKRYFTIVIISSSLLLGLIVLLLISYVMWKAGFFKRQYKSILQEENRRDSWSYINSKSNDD
Sequence of α4β7 integrin (P26010 20-798): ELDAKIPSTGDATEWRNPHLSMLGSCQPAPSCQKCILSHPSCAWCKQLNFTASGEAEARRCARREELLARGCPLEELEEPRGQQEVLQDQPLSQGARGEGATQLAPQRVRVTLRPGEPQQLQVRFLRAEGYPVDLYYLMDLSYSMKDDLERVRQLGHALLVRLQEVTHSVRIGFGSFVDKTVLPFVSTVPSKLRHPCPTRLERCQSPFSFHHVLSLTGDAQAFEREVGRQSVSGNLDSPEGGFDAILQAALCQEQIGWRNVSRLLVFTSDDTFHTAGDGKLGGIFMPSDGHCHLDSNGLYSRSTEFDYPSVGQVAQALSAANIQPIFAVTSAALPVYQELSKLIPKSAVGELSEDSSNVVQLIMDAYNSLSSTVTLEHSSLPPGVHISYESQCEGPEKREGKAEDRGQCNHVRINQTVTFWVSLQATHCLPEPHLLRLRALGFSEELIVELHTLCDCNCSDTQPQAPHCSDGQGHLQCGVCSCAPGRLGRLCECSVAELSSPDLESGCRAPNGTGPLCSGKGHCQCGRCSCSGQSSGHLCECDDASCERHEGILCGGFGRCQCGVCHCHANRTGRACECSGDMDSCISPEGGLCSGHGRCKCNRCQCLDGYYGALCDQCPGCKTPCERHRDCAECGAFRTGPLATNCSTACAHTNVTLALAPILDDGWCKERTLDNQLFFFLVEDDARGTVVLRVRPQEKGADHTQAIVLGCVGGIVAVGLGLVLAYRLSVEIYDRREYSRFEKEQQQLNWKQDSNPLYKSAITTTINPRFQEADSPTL
The compound `Cc1cc(N2CCOC[C@@H]2C(F)(F)F)cc(F)c1C(=O)N[C@@H](Cc1ccc(-n2c(=O)c3cc(F)c(-n4ccnc4)cc3n(C)c2=O)c2ncccc12)C(=O)O` [Example 418] showed an EC50 of 0.104 nM. This lies in the sub-nanomolar range.
In turn, `Cn1c(=O)n(-c2ccc(C[C@H](NC(=O)c3c(F)cc(N4CCOC[C@@H]4C(F)(F)F)cc3F)C(=O)O)c3cccnc23)c(=O)c2cc(F)c(F)cc21` [Example 422] registered an EC50 of 0.231 nM.
Regarding `Cc1cnc(-c2ccc(C[C@H](NC(=O)c3c(C)cc(N4CCOC[C@@H]4C(F)(F)F)cc3F)C(=O)O)c3cccnc23)nc1C` [Example 482], the EC50 worked out at 1.5 nM.
`CC[C@@H](Nc1cc(F)c(C(=O)N[C@@H](Cc2ccc(-n3c(=O)c4ccncc4n(C)c3=O)c3ncccc23)C(=O)O)c(F)c1)C(F)(F)F` [Example 475] displayed an EC50 of 0.157 nM.
`Cc1cc(N2CCOC[C@@H]2C(F)(F)F)cc(F)c1C(=O)N[C@@H](Cc1ccc(-n2c(=O)c3cnccc3n(C)c2=O)c2ncccc12)C(=O)O` [Example 434]: the 50% effective concentration (EC50) was 0.103 nM.
The same measure, in the same setting: with `Cc1cc(C(F)(F)F)c(-c2ccc(C[C@H](NC(=O)c3c(F)cc(N4CCc5ccccc5[C@@H]4C(F)(F)F)cc3F)C(=O)O)c3cccnc23)c(=O)n1C` [Example 472] the figure was 0.331 nM; with `Cc1cc(-c2nccn2CC(F)(F)F)cc(F)c1C(=O)N[C@@H](Cc1ccc(-c2c(C(F)(F)F)cc(C)n(C)c2=O)c2ncccc12)C(=O)O` [Example 435], 0.524 nM.
Still for that read-out and setting: with `Cc1cc(N2CCOC[C@@H]2C(F)(F)F)cc(F)c1C(=O)N[C@@H](Cc1ccc(-c2nc(C)c(C)c(C)n2)c2ncccc12)C(=O)O` [Example 443] the figure was 0.714 nM; with `Cc1cc(N2CCOC[C@@H]2C(F)(F)F)cc(F)c1C(=O)N[C@@H](Cc1ccc(-n2c(=O)c3ccc(F)cc3n(C)c2=O)c2ncccc12)C(=O)O` [Example 431], 0.094 nM.
Consider `Cc1cc(N2CCOC[C@@H]2C(F)(F)F)cc(C)c1C(=O)N[C@@H](Cc1ccc(-c2c(C(F)(F)F)cc(C)n(C)c2=O)c2ncccc12)C(=O)O` [Example 446], for which the half-maximal effective concentration (EC50) came out at 0.318 nM.
`Cc1cc(N2CCOC[C@@H]2C(F)(F)F)cc(F)c1C(=O)N[C@@H](Cc1ccc(-c2c(C)c(C(F)(F)F)cn(C)c2=O)c2ncccc12)C(=O)O` [Example 457]: the EC50 is 0.238 nM. The EC50 values of the last two compounds are within 1.5-fold of each other.
Still for that read-out and setting: for `Cn1c(=O)n(-c2ccc(C[C@H](NC(=O)c3c(F)cc(N4CCOC[C@@H]4C(F)(F)F)cc3F)C(=O)O)c3cccnc23)c(=O)c2cnccc21` [Example 473] the value was 0.196 nM; for `Cn1c(=O)n(-c2ccc(C[C@H](NC(=O)c3c(F)cc(N4CCOC[C@@H]4C(F)(F)F)cc3F)C(=O)O)c3cc(F)cnc23)c(=O)c2cnccc21` [Example 430], 0.469 nM; for `Cc1cc(N2CCOC[C@@H]2C(F)(F)F)cc(F)c1C(=O)N[C@@H](Cc1ccc(-n2c(=O)c3cccnc3n(C)c2=O)c2ncccc12)C(=O)O` [Example 432], 0.11 nM.
The same measure, in the same setting: with `Cc1cc(N2CCOC[C@@H]2C(F)(F)F)cc(F)c1C(=O)N[C@@H](Cc1cc(F)c(-n2c(=O)c3ccncc3n(C)c2=O)c2ncccc12)C(=O)O` [Example 433] the figure was 0.076 nM.

Staying with this assay, now noted: Table 1; capture of α4β7 expressing RPM18866 cells on MadCAM-1 extracellular domain-coated plate.
For `CC[C@@H](Nc1cc(F)c(C(=O)N[C@@H](Cc2ccc(-c3nc(C)ccc3OC)c3ncccc23)C(=O)O)c(F)c1)C(F)(F)F` [Example 120, (S)-2-(2,6-difluoro-4-(((R)-1,1,1-trifluorobutan-2-yl)amino)benzamido)-3-(8-(3-methoxy-6-methylpyridin-2-yl)quinolin-5-yl)propanoic acid], the concentration for a half-maximal effect (EC50) stood at 1.3 nM.
For the compound `Cc1cc(C(F)(F)F)c(-c2ccc(C[C@H](NC(=O)c3c(F)cc(N4CCO[C@H](C)[C@@H]4C(F)(F)F)cc3F)C(=O)O)c3cccnc23)c(=O)n1C` [Example 137, (S)-2-(2,6-difluoro-4-((2R,3R)-2-methyl-3-(trifluoromethyl)morpholino)benzamido)-3-(8-(1,6-dimethyl-2-oxo-4-(trifluoromethyl)-1,2-dihydropyridin-3-yl)quinolin-5-yl)propanoic acid], the concentration giving a half-maximal response (EC50) was 0.4 nM.
On the same count and under the same terms, with `Cn1c(=O)c(-c2ccc(C[C@H](NC(=O)c3c(F)cc(N4CCOC[C@@H]4C(F)(F)F)cc3F)C(=O)O)c3cccnc23)cc2ccccc21` [Example 104, (S)-2-(2,6-difluoro-4-((R)-3-(trifluoromethyl)morpholino)benzamido)-3-(1-methyl-2-oxo-1,2-dihydro-[3,8′-biquinolin]-5′-yl)propanoic acid] the figure was 0.5 nM.
With `O=C(N[C@@H](Cc1ccc(-c2ccccc2C(F)(F)F)c2ncccc12)C(=O)O)c1c(F)cc(NS(=O)(=O)c2ccc(-c3ccnc(F)c3)cc2)cc1F` [Example 65, (S)-2-(2,6-difluoro-4-((4-(2-fluoropyridin-4-yl)phenyl)sulfonamido)benzamido)-3-(8-(2-(trifluoromethyl)phenyl)quinolin-5-yl)propanoic acid], the concentration for a half-maximal effect (EC50) worked out at 8.4 nM.
Same read-out and setting: for `Cc1cc(C(F)(F)F)c(-c2ccc(C[C@H](NC(=O)c3c(F)cc(N4CCCC[C@@H]4C(F)(F)F)cc3F)C(=O)O)c3cccnc23)c(=O)n1C` [Example 129, (S)-2-(2,6-difluoro-4-((R)-2-(trifluoromethyl)piperidin-1-yl)benzamido)-3-(8-(1,6-dimethyl-2-oxo-4-(trifluoromethyl)-1,2-dihydropyridin-3-yl)quinolin-5-yl)propanoic acid] the value was 0.7 nM; for `N#Cc1cc(Cl)c(-c2ccc(C[C@H](NC(=O)c3c(Cl)cccc3Cl)C(=O)O)c3cccnc23)c(Cl)c1` [Example 4, (S)-3-(8-(2,6-dichloro-4-cyanophenyl)quinolin-5-yl)-2-(2,6-dichlorobenzamido)propanoic acid], 6.7 nM; for `C[C@@H](N(C)c1cc(F)c(C(=O)N[C@@H](Cc2ccc(-c3ccc(C#N)cc3Cl)c3ncccc23)C(=O)O)c(F)c1)C(F)(F)F` [Example 87, (S)-3-(8-(2-chloro-4-cyanophenyl)quinolin-5-yl)-2-(2,6-difluoro-4-(methyl((R)-1,1,1-trifluoropropan-2-yl)amino)benzamido)propanoic acid], 15 nM.
On to `CC[C@@H](Nc1cc(F)c(C(=O)N[C@@H](Cc2ccc(-c3ccc(C#N)cc3Cl)c3ncccc23)C(=O)O)c(F)c1)C(F)(F)F` [Example 74, (S)-3-(8-(2-chloro-4-cyanophenyl)quinolin-5-yl)-2-(2,6-difluoro-4-(((R)-1,1,1-trifluorobutan-2-yl)amino)benzamido)propanoic acid], for which the EC50 came out at 13.6 nM.
On the same count and under the same terms, for `COc1ccc(C(F)(F)F)c(-c2ccc(C[C@H](NC(=O)c3c(Cl)cccc3Cl)C(=O)O)c3cccnc23)n1` [Example 69, (S)-2-(2,6-dichlorobenzamido)-3-(8-(6-methoxy-3-(trifluoromethyl)pyridin-2-yl)quinolin-5-yl)propanoic acid] the value was 28.9 nM.

The same assay, now with this note: Table 2; capture of α4β7 expressing RPM18866 cells on MadCAM-1 extracellular domain-coated plate.
For `N#Cc1ccc(-c2ccc(C[C@H](NC(=O)c3c(F)cc(NC(=O)c4ccccc4C(F)(F)F)cc3F)C(=O)O)c3cccnc23)c(Cl)c1` [Example 337], a half-maximal effect (EC50) was put at 26.2 nM.
On the same count and under the same terms, for `CC[C@@H](Nc1cc(F)c(C(=O)N[C@@H](Cc2ccc(-c3c(C(F)F)cc(C)n(C)c3=O)c3ncccc23)C(=O)O)c(F)c1)C(F)(F)F` [Example 167] the value was 0.4 nM; for `CC[C@@H](Nc1cc(F)c(C(=O)N[C@@H](Cc2ccc(-c3c(C(F)(F)F)ccc4cccnc34)c3ncccc23)C(=O)O)c(F)c1)C(F)(F)F` [Example 290], 6.5 nM; for `Cc1c(Cl)cn(C)c(=O)c1-c1ccc(C[C@H](NC(=O)c2c(F)cc(N3CCOC[C@@H]3C(F)(F)F)cc2F)C(=O)O)c2cccnc12` [Example 165], 0.4 nM.
The same measure, in the same setting: for `N#Cc1cc(Cl)c(-c2ccc(C[C@H](NC(=O)c3c(F)cc(CS(=O)(=O)c4ccccc4)cc3F)C(=O)O)c3cccnc23)c(Cl)c1` [Example 293] the value was 6.9 nM; for `N#Cc1ccc(-c2ccc(C[C@H](NC(=O)c3c(F)cc(N[C@H](c4cccc(F)c4)C(F)(F)F)cc3F)C(=O)O)c3cccnc23)c(Cl)c1` [Example 334], 24.2 nM; for `N#Cc1ccc(-c2ccc(C[C@H](NC(=O)c3c(F)cc(O[C@H](c4ccccc4)C(F)(F)F)cc3F)C(=O)O)c3cccnc23)c(Cl)c1` [Example 175], 97.1 nM.
The same measure, in the same setting: for `CC[C@@H](Nc1cc(F)c(C(=O)N[C@@H](Cc2ccc(-c3c(C)n(C)c(=O)n(C)c3=O)c3ncccc23)C(=O)O)c(F)c1)C(F)(F)F` (atropisomer, axis not shown) [Example 234] the value was 2.3 nM.
In turn, `COc1cnn(C)c(=O)c1-c1ccc(C[C@H](NC(=O)c2c(F)cc(N[C@H](C)C(F)(F)F)cc2F)C(=O)O)c2cccnc12` [Example 207] returned an EC50 of 1.7 nM.
On the same count and under the same terms, for `CC(O)(c1cc(F)c(C(=O)N[C@@H](Cc2ccc(-c3ccc(C#N)cc3Cl)c3ncccc23)C(=O)O)c(F)c1)C(F)(F)F` (some centres unmarked) [Example 280] the value was 86.1 nM; for `CCOCc1cc(OC)c(-c2ccc(C[C@H](NC(=O)c3c(F)cc(NC(C)=O)cc3F)C(=O)O)c3cccnc23)c(OC)c1` [Example 329], 20.1 nM; for `CC[C@@H](Nc1cc(F)c(C(=O)N[C@@H](Cc2ccc(-c3cc(C(F)(F)F)cn(C)c3=O)c3ncccc23)C(=O)O)c(F)c1)C(F)(F)F` [Example 210], 1.9 nM.
The same measure, in the same setting: for `Cc1ccc(C(F)(F)F)c(-c2ccc(C[C@H](NC(=O)c3c(F)cc(N4CCOC[C@@H]4C(F)(F)F)cc3F)C(=O)O)c3cccnc23)n1` [Example 270] the value was 4.4 nM; for `Cc1cnc(-c2ccc(C[C@H](NC(=O)c3c(F)cc(N4CCOC[C@@H]4C(F)(F)F)cc3F)C(=O)O)c3cccnc23)c(C(F)(F)F)c1` [Example 260], 3.8 nM; for `COc1ccc(C)nc1-c1ccc(C[C@H](NC(=O)c2c(F)cc(N3CCOC[C@H]3C(F)(F)F)cc2F)C(=O)O)c2cccnc12` [Example 291], 6.9 nM.
Same read-out and setting: for `CC(=O)c1cc(F)c(C(=O)N[C@@H](Cc2ccc(-c3ccc(C#N)cc3Cl)c3ncccc23)C(=O)O)c(F)c1` [Example 241] the value was 80.1 nM; for `N#Cc1ccc(-c2ccc(C[C@H](NC(=O)c3c(F)cc(N4CCC(F)(F)CC4)cc3F)C(=O)O)c3cccnc23)c(Cl)c1` [Example 220], 45.2 nM.

Source of the values: patent US11116760B2 (Gilead Sciences, Inc., priority 2018, dated 2021).
